Results taken from article PMC5428013, “Peptide-Au Clusters Induced Tumor Cells Apoptosis via Targeting Glutathione Peroxidase-1: The Molecular Dynamics Assisted Experimental Studies” (Scientific Reports, 2017).

How the values were obtained:
GPx-1 [1] = settings: through interacting with selenocystein by forming a stable gold-Sec complex; cited from earlier work
Text: Glutathione peroxidase-1 (GPx-1), a crucial antioxidant selenoenzyme in mammalian cells, is selected as a model drug target for tumor treatment. Suppression of intracellular GPx-1 activity induces the accumulation of hydrogen peroxide (reactive oxygen species, ROS), which would render tumor cells susceptible to ROS-induced apoptosis, [20].

A549 cells = assay: Cell viability assay (CCK-8), A549; format: cell-based, human; settings: A549, Au dose of 800 μM, 48 h, CCK-8; mean from three independent experiments
Experimental: Briefly, cells were prior cultured on 96-well plates (at the density of 5 × 10^3 cells/well) for 24 h to allow cells attachment. The cells were treated with different doses of these free peptides (0, 1, 4, 16, 64, 256, 1024 µM) and peptide-Au clusters (0, 50, 100, 200, 400, 800 µM in Au dose) for 48 h, respectively. The cells were washed three times with PBS and then incubated with fresh growth medium containing 10% (v/v) CCK-8 reagent for 1 h at 37 °C for cell viability assay. The absorbance was measured at 450 nm by using a microplate reader (SpectraMAX M2, Sunnyvale, California). Cell viability of untreated cells was set as 100%, and that of treated cells were expressed as a relative percentage of untreated cells. All data were shown as mean percentages ± standard deviation from three independent experiments.

GPx-1 [2] = assay: GPx-1 enzyme activity suppression in buffer; format: biochemical, bovine; settings: buffer, Au dose of 400 μM, 10 min, GPx Activity Colorimetric Assay Kit, NADPH absorbance at 340 nm
Text: The peptides (N2H-CCYGGPEEEEEVG-COOH (named P1), NH2-CCYGGPDDDEDVG-COOH (named P2) and NH2-CCYGGPEEVEEVG-COOH (named P3)) were chemically synthesized by a solid phase method (China Peptides Co. Ltd, Purity: 98%). Hydrogen tetrachloroaurate (III) (HAuCl4·4H2O) was purchased from Sinopharm Chemical Reagent Co. Ltd. Sodium hydroxide (NaOH), nitric acid (HNO3), hydrochloric acid (HCl) and hydrogen peroxide (H2O2) were purchased from Beijing Chemical Reagent Co., China. Human non-small cell lung carcinoma cells (A549 cells), Henrietta Lacks strain of cancer cells (Hela cells) and human colon adenocarcinoma cells (HCT-8 cells) were from Cancer Institute and Hospital, Chinese Academy of Medical Sciences. Fetal bovine serum (FBS) and trypsin-EDTA were obtained from Gibco, USA. Penicillin-streptomycin solution, cell culture medium DMEM and RPMI 1640 were purchased from Hyclone. Hoechst 33342, LysoTracker®Green DND-26, and CM-H2DCFDA were from Molecular Probes, USA. NucView™ 488 Caspase-3 Assay Kit was bought from Biotium, USA. 5,5′,6,6′-tetrachloro-1,1′,3,3′-tetraethylbenzimidazolocarbocyanine iodide (JC-1), cell lysis buffer for Western and IP, phenylmethanesulfonyl fluoride (PMSF) and BCA Protein Assay Kit were obtained from Beyotime Institute of Biotechnology, China. Protease inhibitor cocktail tablets were from Roche Diagnostics, GmbH, Mannheim, Germany. Cell counting kit-8 (CCK-8) reagents and Annexin V-FITC/Propidium (PI) Apoptosis Detection Kit were purchased from Dojindo Laboratories, Japan. GPx from bovine erythrocytes […] was provided by Sigma Aldrich, USA. GPx Activity Colorimetric Assay Kit was provided by Biovision, USA. Anti-GPx-1 antibody was offered by Abcam, UK. PARP antibody, caspase-3 antibody and β-actin antibody were offered by Cell Signaling Technology, USA. Amicon ultra centrifugal filter devices (Merck Millipore, MWCO: 10 kDa) were used for purification steps. Ultrapure Millipore (Mini-Q) water (18.2 MΩ) was used throughout the experiments. […]
Pure GPx (lyophilized powder, ≥300 units/mg protein) were diluted by GPx sample buffer and incubated with peptide-Au clusters (Au25P1_9, Au25P2_9 and Au25P3_9) at a series of Au dose (0, 25, 100, 400 μM) for 10 min, respectively. […] The GPx activity of untreated samples was set as 100%, and that of peptide-Au clusters treated samples were expressed as a relative percentage of untreated ones.
Figure S12. Peptide-Au clusters treated GPx-1 activity measured in buffer solution. The decrease in NADPH absorbance measured at 340 nm during the oxidation of NADPH to NADP is the indicative of GPx activity,^1, 2 which is in a dose dependent manner in tube experiments when treated with serial doses of peptide-Au clusters.

For `CC(=O)OC[C@H]1O[C@@H]([S-])[C@H](OC(C)=O)[C@@H](OC(C)=O)[C@@H]1OC(C)=O.CCP(CC)CC.[Au+]` [auranofin], the “inhibition of GPx-1 activity” value (GPx-1 [1]) is given as “can inhibit GPx-1 activity”.
In the case of `O=C(O)CC([S-])C(=O)O.[Au+]` (stereo not drawn) [gold thiomalate], the “inhibition of GPx-1 activity” value (GPx-1 [1]) is given as “can inhibit GPx-1 activity”.
With “CCYGGPDDDEDVG [Au25P2_9, Au25 cluster coated by nine P2 peptides (…)]” the “cell viability (relative to untreated = 100%)” value (A549 cells) was 53% and the “GPx-1 activity (relative to untreated = 100%)” value (GPx-1 [2]) was 16%.
With “CCYGGPEEVEEVG [Au25P3_9, Au25 cluster coated by nine P3 peptides (…)]” the “cell viability (relative to untreated = 100%)” value (A549 cells) was 71% and the “GPx-1 activity (relative to untreated = 100%)” value (GPx-1 [2]) was 29%.
